According to ChEMBL document CHEMBL3507680, “University of Dundee, Gates Library screen for HepG2 cell viability”:

Test: Human HepG2 cell viability assay in 384 well format
Assay type: toxicity, cell-based
Set-up: dose 125 nL, time 70.5 hour; cytotoxicity at 70.5 h: concentration not given beside the values
Conditions: HepG2 cells, read-out: Inhibition

Structure (SMILES)	cytotoxicity at 70.5 h [%]
Cc1ccc(CN(C)C(=O)NCC(C)(C)CCS(C)(=O)=O)s1	-1.02
Cc1nc(Cn2cncc(Br)c2=O)no1	6.27
O=C(c1cccc(F)c1)N(CCCO)S(=O)(=O)c1cccs1	-8.04
CCN(C)S(=O)(=O)N1CCCC(c2nc(-c3ccccc3)c[nH]2)C1 (centres undefined)	14.3
COC(=O)CCN(C)C(=O)c1ccc(-c2cscn2)cc1	4.45
O=C(CCCc1nc2ccccc2[nH]1)N1CCCC1c1ccncc1 (centres undefined)	32.6
O=c1cc(CN(Cc2ccco2)C2CC2)nc2ccc(Br)cn12	-3.54
CCn1cnnc1CNC(=O)NC(c1ccccc1)C1CCCC1 (centres undefined)	-7.51
O=c1cc(CN(CCO)C2CC2)nc2ccc(Cl)cn12	14.2
Cc1noc(C2CCN(C(=O)c3cc(Cl)c(Cl)n3C)CC2)n1	-2.97
CCOCCC(=O)NCCNc1nccc(C(F)(F)F)n1	2.23
CS(=O)(=O)N1CCCC(c2nc(-c3ccccc3)c[nH]2)C1 (centres undefined)	-7.34
CCOc1cncc(NCCc2nnc3ccccn23)n1	-4.67
O=C(Cc1ccon1)Nc1cncc(Br)c1O	-0.318
CN(C)C(=O)c1ccc(-c2cscn2)cc1	1.52
O=C(Cc1ccn[nH]1)Nc1cncc(Br)c1O	-2.7
O=S(=O)(c1ccccc1Cl)N1CCCC(c2ncc[nH]2)C1 (centres undefined)	-3.85
O=C(Nc1cncc(Br)c1O)c1ccon1	-2.33
CCc1nnc(CNc2ccc(CC(=O)N3CCSCC3)cc2)o1	13.8
Cc1noc(C2CCCN(C(=O)c3cc(Cl)cn3C)C2)n1 (centres undefined)	-4.77

Structure (SMILES)	cytotoxicity at 70.5 h [%]
COc1ccccc1OCc1nc(C(C)C)no1	12.8
CCc1noc(CNc2cccc(C(=O)N3CCSCC3)c2)n1	0.659
CC(NCCCn1ccnc1)c1ccc(N2CCCS2(=O)=O)cc1 (centres undefined)	31
CC(NC(=O)CN1CCN(Cc2ccc(Br)s2)CC1)c1ccccc1 (centres undefined)	25.3
Cc1noc(C(C)C)c1C(=O)NCC1CCN(c2ccccc2)C1 (centres undefined)	6.36
Cc1noc(C)c1C(=O)NCC1CCCCN1Cc1ccccc1 (centres undefined)	-1.55
CN(Cc1nnc2ccccn12)C(=O)NC1CCCCC1	-4.44
CN(Cc1nnc2ccccn12)C(=O)CC1CCCCC1	-8.16
CC(C)(C)CC(NC(=O)c1nc(=O)[nH][nH]1)c1ccc(F)cc1 (centres undefined)	-3.76
O=C(CCS(=O)(=O)C1CCCC1)N1CCC(O)(C(F)(F)F)C1 (centres undefined)	19.5
Cc1ccc(C(=O)Nc2cc(C(N)=O)ccc2CN(C)C)cc1Cl	-7.51
Cc1noc(C(C)C)c1C(=O)NCC1CCCN1Cc1ccccc1 (centres undefined)	9.45
Cc1nc(C(C)NC(=O)NCc2nccn2CC(C)C)cs1 (centres undefined)	4.05
CC(C)Cn1ccnc1CNC(=O)NC(C)c1nccs1 (centres undefined)	1.43
O=C(Nc1cccnc1)Nc1ccn(CC(F)F)n1	7.38
CCOc1ccc(NC(=O)c2scnc2CC)cc1CO	1.88
COCC(O)CN1CCC(NC(=O)c2ccccc2Cl)CC1 (centres undefined)	-0.503
N#CCCN(C(=O)COC1CCCC1)C1CC1	-0.353
CCN(C(=O)Cc1ccc(NCc2nccn2C)cc1)c1ccccc1	-6.33
Cc1nc2n(n1)CC(NCCCc1nc(-c3cccs3)no1)CC2 (centres undefined)	4.3

Structure (SMILES)	cytotoxicity at 70.5 h [%]
OCCN1CCCCC1C1OCCO1 (centres undefined)	0.562
CNC(=O)CN1CCC(CN(C)CCSc2ccccc2)CC1	-0.471
C1CCN(CCN2CCCCC2C2OCCO2)CC1 (centres undefined)	3.91
Cc1nc(C(C)C)sc1C(=O)N1CCC(C(N)=O)CC1	6
Cc1noc(CN2CCN(c3cncc(Cl)n3)CC2)n1	-4.58
CN(C)c1cc(C(F)(F)F)nc(N2CCCC2c2ccccn2)n1 (centres undefined)	-5.01
Clc1cncc(N2CCN(Cc3ccon3)CC2)n1	-3.48
Cc1nc(CN2CCN(c3cncc(Cl)n3)CC2)no1	-9.09
Cc1cccc(S(=O)(=O)NC(=O)CN(C)Cc2ccccc2)c1	1.15
Cc1n[nH]c(C)c1CNC(=O)NC1CCCN(c2ccccc2F)C1 (centres undefined)	6.33
Cc1[nH]ncc1C(=O)NCC1CCC2(CC1)OCCO2	-5.66
O=S(=O)(N1CCCC1)N1CC[C@H](c2ccccc2)[C@H]2NCCCC[C@H]21	-2.6
CCN(CC)S(=O)(=O)N1CC[C@H](c2ccccc2)[C@H]2NCCCC[C@H]21	-3.25
c1cn(-c2cncc(C3CCNCC3)n2)cn1	-6.9
COc1ccc(-c2ccnc(C3CCNCC3)c2)cc1	-5.12
O=C(c1cc2c(s1)CCCC2)N1CCc2nc(C3CCCN3)ncc2C1 (centres undefined)	6.76
CC(C)(C)n1cc(CNC2CCN(C(=O)c3ccoc3)CC2)cn1	-1.77
CC(C)[C@H](N)C(=O)N1CCSc2ccccc2C1	-3.37
COc1ccccc1OCCc1cc(C2CCNC2)n[nH]1 (centres undefined)	-6.36
